Assay results reported in patent publication US8603527B2, “Pharmaceutical formulations of a substituted diaminopurine” (Signal Pharmaceuticals, LLC, priority 2010, dated 2013).

Experiment: clinical
Settings: human, in vivo, 100 mg; for AUC(0-t): AUC0-t; for Vd/F: Vz/F
Excerpt: Methods: This was an open-label study conducted at a single study center in conformance with good clinical practice (GCP). Thirty-six eligible healthy male and female subjects were enrolled and distributed into 3 groups as follows:
Group 1—A total of 12 females between 18 to 55 years of age, inclusive (±5 years age-matched and ±10% weight-matched to subjects in Group 2).
Group 2—A total of 12 males between 18 to 55 years of age, inclusive (±5 years age-matched and ±10% weight-matched to subjects in Group 1).
Group 3—A total of 12 males and females between 65 and 85 years of age, inclusive (weight and gender-matched to subjects in Groups 1 and 2), with a minimum of 3 subjects of each gender. Seven of the subjects in Group 3 were age 70 or above, with 2 of those subjects being >75 years of age.
Group 1 (Healthy Females) and Group 3 (Elderly Males and Females): Subjects were screened within 21 days of dosing and eligible subjects were admitted to the study center on Day −1 (i.e., at least 12 hours predose) for baseline assessments and confirmation of eligibility. A single oral dose of 100 mg Compound I was administered on Day 1 following an overnight fast of at least 8 hours. Subjects were discharged from the study center the morning of Day 3 upon completion of study procedures and returned to the study center for PK blood draws and safety assessments on Days 4, 5, and 6. The end-of-study (EOS) evaluation also occurred on Day 6. Subjects returned to the study center for a follow-up visit between 7 and 10 days from EOS. Serial blood samples were collected predose and up to 120 hours postdose for the determination of plasma Compound I concentrations. Safety was monitored throughout the study; safety evaluations included AE reporting, physical examinations, vital sign measurements, ECGs, and clinical laboratory safety tests. All AEs and concomitant medications were assessed and recorded throughout the study from the time the ICF was signed through follow-up.
Group 2 (Healthy Males): Subjects in Group 2 participated in this portion of the study to evaluate food effect using a randomized, open-label, single dose, 2-period (Period 1 and Period 2), 2-sequence, 2-way crossover design. Subjects were screened within 21 days of dosing and eligible subjects were admitted to the study center on Day −1 (i.e., at least 12 hours predose) for baseline assessments and confirmation of eligibility. On Day 1 of Period 1, following an overnight fast of at least 8 hours, subjects were randomized to receive 100 mg Compound I either with or without food (6 subjects received Compound I with food and 6 subjects received Compound I without food) according to a random code. Subjects were discharged from the study center the morning of Day 3 upon completion of study procedures and returned to the study center for PK blood draws and safety assessments on Days 4, 5, and 6.
Following an interdose interval of 10 to 15 days (i.e., at least 10 days and no more than 15 days from the dosing day (Day 1) of Period 1 to Day 1 of Period 2), subjects were re-admitted to the study center on Day −1 of Period 2 (i.e., at least 12 hours predose) for baseline assessments and reconfirmation of eligibility. On Day 1 of Period 2, assigned treatment was switched. Subjects who received Compound I with food in Period 1 received Compound I without food in Period 2 and subjects who received Compound I without food in Period 1 received Compound I with food in Period 2. Subjects were discharged from the study center the morning of Day 3 upon completion of study procedures and returned to the study center for PK blood draws and safety assessments on Days 4, 5, and 6. Day 6 of Period 2 also served as the EOS evaluation. Subjects returned to the study center for a follow-up visit between 7 and 10 days from EOS. In each study period, serial blood samples were collected predose and up to 120 hours postdose for the determination of plasma Compound I concentrations. […]

## O[C@H]1CC[C@H](Nc2ncc3nc(Nc4c(F)cc(F)cc4F)n([C@H]4CCOC4)c3n2)CC1 [Compound I, 4-((9-((3S)-tetrahydro-3-furanyl)-8-((2,4,6-trifluorophenyl)amino)-9H-purin-2-yl)amino)-trans-cyclohexanol]
Both sexes, po, Geometric Mean
  AUC(0-t): 13.5 µg·h/mL
Both sexes, po, Geometric Means
  AUC(0-t): 13.5 µg·h/mL
Both sexes, po, AUC0-∞ (geometric mean)
  AUC(0-inf): 14.4 µg·h/mL
Both sexes, po, AUC0-∞, Geometric Mean
  AUC(0-inf): 14.4 µg·h/mL
Both sexes, po, AUC0-∞, Geometric Means
  AUC(0-inf): 14.3 µg·h/mL
Both sexes, po, AUCO-inf
  AUC: 14.8 µg·h/mL
Both sexes, po, AUCO-t
  AUC: 14.2 µg·h/mL
Both sexes, po, Cmax
  Cmax: 0.742 µg/mL
Both sexes, po, Cmax (geometric mean)
  Cmax: 0.649 µg/mL
Both sexes, po, Cmax, Geometric Mean
  Cmax: 0.602 µg/mL
Both sexes, po, Cmax, Geometric Means
  Cmax: 0.654 µg/mL
Both sexes, po, T1/2
  half-life: 24.5 h
Both sexes, po, Tmax
  Tmax: 1.97 h
Both sexes, po, Tmax, Median
  Tmax: 2 h
Both sexes, po
  Vd/F: 250 L
Both sexes, po, mean t1/2
  half-life: 23 to 34 h
Both sexes, po, median Tmax
  Tmax: 1 to 2 h
Both sexes, po, t1/2, Geometric Mean
  half-life: 27.9 h
both
  90% CI for the ratio (elderly/young) of geometric means, AUC0-t: 86.7, 119.1
  90% CI for the ratio (elderly/young) of geometric means, AUC0-∞: 84.0, 117.3
  90% CI for the ratio (elderly/young) of geometric means, Cmax: 82.0, 143.8
  90% CI for the ratio (female/male) of geometric means, AUC0-t: 81.7, 112.1
  90% CI for the ratio (female/male) of geometric means, AUC0-∞: 79.7, 111.4
  90% CI for the ratio (female/male) of geometric means, Cmax: 72.3, 126.7
both, po
  AUC0-t, Geometric Mean: 13.6794 µg·h/mL
  AUC0-t, Geometric Means: 13.7221 µg·h/mL
  AUC0-∞ (geometric mean): 14.23914 µg·h/mL
  AUC0-∞, Geometric Mean: 14.23914 µg·h/mL
  AUC0-∞, Geometric Means: 14.3983 µg·h/mL
  Cmax, Geometric Means: 0.602 µg/mL
  Tmax, Median: 1.75 h
  median Tmax: approximately 1.5 hours
  t1/2, Geometric Mean: 23.61 h
female, po, Geometric Mean
  AUC(0-t): 13.1 µg·h/mL
female, po, Geometric Means
  AUC(0-t): 13.3 µg·h/mL
female, po, AUC0-∞
  AUC(0-inf): 13.7 µg·h/mL
female, po, AUC0-∞, Geometric Mean
  AUC(0-inf): 13.7 µg·h/mL
female, po, AUC0-∞, Geometric Means
  AUC(0-inf): 13.9 µg·h/mL
female, po, AUCO-inf
  AUC: 13.3 µg·h/mL
female, po, AUCO-t
  AUC: 12.7 µg·h/mL
female, po, Cmax
  Cmax: 0.587 µg/mL
female, po, Cmax, Geometric Mean
  Cmax: 0.587 µg/mL
female, po, Cmax, Geometric Means
  Cmax: 0.614 µg/mL
female, po, T1/2
  half-life: 24.4 h
female, po, Tmax
  Tmax: 2.19 h
female, po, Tmax, Median
  Tmax: 2.06 h
female, po
  Vd/F: 265 L
female, po, median Tmax
  Tmax: 2 h
female, po, t1/2, Geometric Mean
  half-life: 24.6 h
  90% CI of the median difference (elderly-young), Tmax: −0.5, 0.5
  90% CI of the median difference (fed-fast), Tmax: 2.00, 3.00
  90% CI of the median difference (female-male), Tmax: 0.00, 1.00
male
  90% CI for the ratio (fed/fast) of geometric means, AUC0-t: 97.3, 108.1
  90% CI for the ratio (fed/fast) of geometric means, AUC0-∞: 98.5, 109.4
  90% CI for the ratio (fed/fast) of geometric means, Cmax: 71.6, 105.3
  Tmax: 1.00 h
  AUC(0-t): 14.4 µg·h/mL
male, AUC0-∞
  AUC(0-inf): 15.6 µg·h/mL
male, Cmax
  Cmax: 0.658 µg/mL
male, t1/2
  half-life: 32 h
male, po
  median Tmax: 1 h
  Vd/F: 308 L
male, po, Geometric Mean
  AUC(0-t): 14 µg·h/mL
male, po, AUC0-∞
  AUC(0-inf): 15 µg·h/mL
male, po, AUC0-∞ (geometric mean)
  AUC(0-inf): 16.2 µg·h/mL
male, po, AUC0-∞, Geometric Mean
  AUC(0-inf): 15 µg·h/mL
male, po, AUCO-inf
  AUC: 16 µg·h/mL
male, po, AUCO-t
  AUC: 14.7 µg·h/mL
male, po, Cmax
  Cmax: 0.646 µg/mL
male, po, Cmax (geometric mean)
  Cmax: 0.572 µg/mL
male, po, Cmax, Geometric Mean
  Cmax: 0.646 µg/mL
male, po, T1/2
  half-life: 33 h
male, po, t1/2, Geometric Mean
  half-life: 28.1 h
